Results reported in patent US20180194762A1 (Pharmacyclics LLC, priority 2017, published 2018).

Columns and labels:
Assay type in all cases: biochemical
TEC = biological target: T1, TEC (Homo sapiens, UniProt P42680); assay: Inhibition of a panel of kinases (in vitro HotSpot kinase assay, 33P-ATP, 1 μM ATP); conditions: for IC50: HotSpot kinase assay, 1 μM ATP
T1 sequence (P42680 1-631): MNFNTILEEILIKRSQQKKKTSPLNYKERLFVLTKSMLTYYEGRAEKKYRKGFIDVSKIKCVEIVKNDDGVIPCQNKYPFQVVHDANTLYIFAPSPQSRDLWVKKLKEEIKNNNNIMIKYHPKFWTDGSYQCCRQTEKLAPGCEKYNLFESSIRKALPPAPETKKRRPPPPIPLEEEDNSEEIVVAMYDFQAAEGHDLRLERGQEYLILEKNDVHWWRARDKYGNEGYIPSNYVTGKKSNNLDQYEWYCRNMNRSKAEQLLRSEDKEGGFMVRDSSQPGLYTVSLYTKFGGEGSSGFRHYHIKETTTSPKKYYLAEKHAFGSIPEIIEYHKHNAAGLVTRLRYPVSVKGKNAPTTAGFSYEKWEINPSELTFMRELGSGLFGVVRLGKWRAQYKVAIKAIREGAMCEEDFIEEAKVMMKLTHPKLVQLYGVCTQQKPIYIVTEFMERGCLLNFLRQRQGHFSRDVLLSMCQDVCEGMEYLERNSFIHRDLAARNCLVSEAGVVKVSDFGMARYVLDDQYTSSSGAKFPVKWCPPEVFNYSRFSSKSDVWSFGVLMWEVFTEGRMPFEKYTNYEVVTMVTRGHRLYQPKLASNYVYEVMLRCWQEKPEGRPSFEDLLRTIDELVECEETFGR
Summary of the method: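 At 1 μM ATP spiked with 33P-ATP, substrate phosphorylation by the purified enzymes gives the extent of inhibition.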

panel of kinases = biological target: T2, panel of kinases (Homo sapiens, UniProt P51813); assay: Inhibition of a panel of kinases (in vitro HotSpot kinase assay, 33P-ATP, 1 μM ATP), other kinases; conditions: BMX wild-type, read-out: BMX-WT IC50
T2 sequence (P51813 1-675): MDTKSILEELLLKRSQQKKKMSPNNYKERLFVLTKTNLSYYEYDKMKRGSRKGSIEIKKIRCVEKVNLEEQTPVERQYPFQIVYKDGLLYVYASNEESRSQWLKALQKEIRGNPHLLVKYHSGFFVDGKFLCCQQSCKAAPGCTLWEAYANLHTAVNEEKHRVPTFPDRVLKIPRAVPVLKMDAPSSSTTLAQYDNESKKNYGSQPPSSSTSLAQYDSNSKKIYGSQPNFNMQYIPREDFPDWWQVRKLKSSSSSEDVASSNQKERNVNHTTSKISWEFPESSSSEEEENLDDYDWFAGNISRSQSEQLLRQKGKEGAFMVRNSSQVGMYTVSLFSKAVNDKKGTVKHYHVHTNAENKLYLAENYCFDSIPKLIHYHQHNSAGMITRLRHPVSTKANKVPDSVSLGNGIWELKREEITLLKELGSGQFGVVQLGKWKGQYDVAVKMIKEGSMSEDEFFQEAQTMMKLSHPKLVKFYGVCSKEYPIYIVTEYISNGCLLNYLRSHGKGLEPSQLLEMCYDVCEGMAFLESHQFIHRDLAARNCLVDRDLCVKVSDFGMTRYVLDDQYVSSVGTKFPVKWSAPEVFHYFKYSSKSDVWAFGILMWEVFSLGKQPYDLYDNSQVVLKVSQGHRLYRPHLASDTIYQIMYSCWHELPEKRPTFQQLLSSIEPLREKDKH
Description: Example 63: Inhibition of a Panel of Kinases The degree of inhibition of a panel of kinases is determined using the in vitro HotSpot kinase assay (purified enzymes, ^33P-ATP, an appropriate substrate and 1 μM ATP).

Btk = biological target: T3, Btk (Homo sapiens, UniProt Q06187); assay: Btk in vitro inhibitory activity (one of Method A TR-FRET, Method B electrophoretic mobility shift, Method C radiometric filter binding); conditions: wild-type Btk; read-out: Btk-WT IC50
T3 construct: purified from insect cells as a full-length construct containing a N-terminal 6X-His tag; His6 (N); made in house; host or cells: insect cells (Method C)
Summary of the method: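 Three alternative formats were used. A radiometric filter-binding read used 8 nM full-length His-BTK with 0.2 mg/mL poly(Glu-Tyr) 4:1 (C); microfluidic separation of 1 μM FAM-peptide by 1 nM BTK gave IC50 from 12-point curves (B); TR-FRET at Km ATP, 0.5 nM Btk, gave Ki(app)-derived IC50 (A).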

T3 sequence (Q06187 whole entry): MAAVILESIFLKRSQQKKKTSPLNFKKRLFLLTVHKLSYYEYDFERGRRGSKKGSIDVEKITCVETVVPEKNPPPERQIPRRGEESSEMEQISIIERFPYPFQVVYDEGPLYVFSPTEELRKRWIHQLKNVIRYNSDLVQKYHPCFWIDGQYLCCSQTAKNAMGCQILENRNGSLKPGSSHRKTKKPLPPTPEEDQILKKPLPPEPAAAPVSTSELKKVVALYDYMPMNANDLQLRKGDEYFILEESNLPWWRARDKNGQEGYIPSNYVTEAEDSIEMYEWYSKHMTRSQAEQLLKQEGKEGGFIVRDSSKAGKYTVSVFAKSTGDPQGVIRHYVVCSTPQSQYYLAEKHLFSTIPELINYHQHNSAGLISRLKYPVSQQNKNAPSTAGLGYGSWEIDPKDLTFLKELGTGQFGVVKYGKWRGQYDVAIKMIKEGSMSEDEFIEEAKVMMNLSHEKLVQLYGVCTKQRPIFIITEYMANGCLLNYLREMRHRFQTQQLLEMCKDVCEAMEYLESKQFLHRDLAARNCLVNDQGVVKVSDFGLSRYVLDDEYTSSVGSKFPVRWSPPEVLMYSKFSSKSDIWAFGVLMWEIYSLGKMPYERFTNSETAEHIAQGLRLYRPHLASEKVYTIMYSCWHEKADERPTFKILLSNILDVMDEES

Structure (SMILES) | TEC/Btk (TEC; ratio of TEC IC50 to Btk IC50 (selectivity)) | IC50 (panel of kinases) [µM] | IC50 (Btk) [µM] | IC50 (TEC) [µM]
OCc1ccc(-c2ccnc3[nH]nc(N[C@H]4CC[C@H](O)CC4)c23)cc1F [Compound 11] | 10 | 2.58 |  | 
CC(=O)N[C@@H]1CCN(c2n[nH]c3nccc(-c4ccc(CNC(=O)c5nc6c(o5)CCCC6)c(F)c4)c23)C1 [Example 198, N-[(4-{3-[(3R)-3-acetamidopyrrolidin-1-yl]-1H-pyrazolo[3,4-b]pyridin-4-yl}-2-fluorophenyl)methyl]-4,5,6,7-tetrahydro-1,3-benzoxazole-2-carboxamide] |  | 3.18 | 0.137 | 
C[C@@H](NC(=O)c1nc(C(C)(C)C)no1)c1ccc(-c2ccnc3[nH]nc(NC4CCOC4)c23)cc1 (stereo partly drawn) [Example 217, 3-tert-butyl-N-[(1R)-1-(4-{3-[(oxolan-3-yl)amino]-1H-pyrazolo[3,4-b]pyridin-4-yl}phenyl)ethyl]-1,2,4-oxadiazole-5-carboxamide] |  | 6.81 | 0.00645 | 
C[C@@H](NC(=O)c1nc(C(C)(C)C)no1)c1ccc(-c2ccnc3[nH]nc(NC4CCOCC4)c23)cc1 [Example 218, 3-tert-butyl-N-[(1R)-1-(4-{3-[(oxan-4-yl)amino]-1H-pyrazolo[3,4-b]pyridin-4-yl}phenyl)ethyl]-1,2,4-oxadiazole-5-carboxamide] |  | 6.6 | 0.0191 | 
C[C@@H](NC(=O)c1noc(C(C)(C)C)n1)c1ccc(-c2ccnc3[nH]nc(C4=CCCN(C(=O)N(C)C)C4)c23)cc1 [Example 254, 5-[4-(4-{(1R)-1-[(5-tert-butyl-1,2,4-oxadiazole-3-carbonyl)amino]ethyl}phenyl)-1H-pyrazolo[3,4-b]pyridin-3-yl]-N,N-dimethyl-3,6-dihydropyridine-1(2H)-carboxamide] |  | 9.08 | 0.0408 | 
Cc1c(NC(=O)c2noc(C(C)(C)C)n2)cccc1-c1ccnc2[nH]nc(N[C@@H]3CCNC3)c12 [Example 266, 5-tert-butyl-N-[2-methyl-3-(3-{[(3R)-pyrrolidin-3-yl]amino}-1H-pyrazolo[3,4-b]pyridin-4-yl)phenyl]-1,2,4-oxadiazole-3-carboxamide] |  | 5.04 |  | 
CC(C)(C)c1ccc(C(=O)NCc2ccc(-c3ccnc4[nH]nc(NC5CCNC5)c34)cn2)cc1 (stereo not shown) [Example 268, 4-tert-butyl-N-[(5-{3-[(pyrrolidin-3-yl)amino]-1H-pyrazolo[3,4-b]pyridin-4-yl}pyridin-2-yl)methyl]benzamide] |  | 3.02 |  | 4.47
CC(C)(C)c1nc(C(=O)NCc2ccc(-c3ccnc4[nH]nc(C[C@H]5CCNC5)c34)cc2F)no1 [Example 274, (R)-5-tert-butyl-N-[(2-fluoro-4-{3-[(pyrrolidin-3-yl)methyl]-1H-pyrazolo[3,4-b]pyridin-4-yl}phenyl)methyl]-1,2,4-oxadiazole-3-carboxamide] |  | 8.43 | 0.147 | 
CC(C)(C)c1nc(C(=O)NCc2ccc(-c3ccnc4[nH]nc(C5CCNC5)c34)cc2F)no1 (stereo not shown) [Example 278, 5-tert-butyl-N-({2-fluoro-4-[3-(pyrrolidin-3-yl)-1H-pyrazolo[3,4-b]pyridin-4-yl]phenyl}methyl)-1,2,4-oxadiazole-3-carboxamide] |  | 7.86 | 0.0935 | 
CC(C)c1cc(C(=O)NCc2ccc(-c3ccnc4[nH]nc(N[C@@H]5CCCN(C(=O)N(C)C)[C@@H]5C)c34)cc2F)no1 [Example 305, (2R,3R)-3-({4-[3-fluoro-4-({[5-(propan-2-yl)-1,2-oxazole-3-carbonyl]amino}methyl)phenyl]-1H-pyrazolo[3,4-b]pyridin-3-yl}amino)-N,N,2-trimethylpiperidine-1-carboxamide] |  | 9.58 | 0.677 | 
C=CC(=O)N[C@@H]1CCCC[C@H]1Nc1n[nH]c2nccc(-c3ccc(CNC(=O)c4cc(C(C)(C)C)on4)c(F)c3)c12 [Example 313, 5-tert-butyl-N-({2-fluoro-4-[3-({(1R,2R)-2-[(prop-2-enoyl)amino]cyclohexyl}amino)-1H-pyrazolo[3,4-b]pyridin-4-yl]phenyl}methyl)-1,2-oxazole-3-carboxamide] |  | 5.23 | 0.00874 | 
C[C@@H]1[C@H](Nc2n[nH]c3nccc(-c4ccc(CNC(=O)c5cc(C(C)(C)O)on5)c(F)c4)c23)CCCN1C(=O)N(C)C [Example 316, (2R,3R)-3-({4-[3-fluoro-4-({[5-(2-hydroxypropan-2-yl)-1,2-oxazole-3-carbonyl]amino}methyl)phenyl]-1H-pyrazolo[3,4-b]pyridin-3-yl}amino)-N,N,2-trimethylpiperidine-1-carboxamide] |  | 8.66 |  | 
C[C@@H]1[C@H](Nc2n[nH]c3nccc(-c4ccc(CNC(=O)c5cc(C(C)(C)N)on5)c(F)c4)c23)CCCN1C(=O)N(C)C [Example 317, (2R,3R)-3-({4-[4-({[5-(2-aminopropan-2-yl)-1,2-oxazole-3-carbonyl]amino}methyl)-3-fluorophenyl]-1H-pyrazolo[3,4-b]pyridin-3-yl}amino)-N,N,2-trimethylpiperidine-1-carboxamide] |  | 6.55 |  | 
O=C(NCc1ccc(-c2ccnc3[nH]nc(NC4CCNC4)c23)cc1F)c1cc(Cl)on1 (stereo not shown) [Example 341, 5-chloro-N-[(2-fluoro-4-{3-[(pyrrolidin-3-yl)amino]-1H-pyrazolo[3,4-b]pyridin-4-yl}phenyl)methyl]-1,2-oxazole-3-carboxamide] |  | 2.03 | 0.901 | 
CN(C)C(=O)N1CC[C@@H](Nc2n[nH]c3nccc(-c4ccc(CNC(=O)c5cc(Cl)on5)c(F)c4)c23)C1 [Example 343, 5-chloro-N-{[4-(3-{[(3R)-1-(dimethylcarbamoyl)pyrroli-din-3-yl]amino}-1H-pyrazolo[3,4-b]pyridin-4-yl)-2-fluorophenyl]methyl}-1,2-oxazole-3-carboxamide] |  | 1.72 |  | 
O=C(NCc1ccc(-c2ccnc3[nH]nc(N[C@@H]4CCNC4)c23)cc1F)c1cc(-c2ccccc2)on1 [Example 344, (R)-N-[(2-fluoro-4-{3-[(pyrrolidin-3-yl)amino]-1H-pyrazolo[3,4-b]pyridin-4-yl}phenyl)methyl]-5-phenyl-1,2-oxazole-3-carboxamide] |  | 5.67 |  | 
C[C@@H](NC(=O)c1cc(C(C)(C)O)on1)c1ccc(-c2ccnc3[nH]nc(NC4CCS(=O)(=O)CC4)c23)cc1 [Example 385, N-[(1R)-1-(4-{3-[(1,1-dioxo-1λ^6-thian-4-yl)amino]-1H-pyrazolo[3,4-b]pyridin-4-yl}phenyl)ethyl]-5-(2-hydroxypropan-2-yl)-1,2-oxazole-3-carboxamide] |  | 9.78 |  | 
C[C@@H](NC(=O)c1cc(C(C)(C)O)on1)c1ccc(-c2ccnc3[nH]nc(NC4CCCCC4)c23)cc1 [Example 399, N-[(1R)-1-{4-[3-(cyclohexylamino)-1H-pyrazolo[3,4-b]pyridin-4-yl]phenyl}ethyl]-5-(2-hydroxypropan-2-yl)-1,2-oxazole-3-carboxamide] |  | 4.32 |  | 9.27
C[C@@H](NC(=O)c1cc(C(C)(C)O)on1)c1ccc(-c2ccnc3[nH]nc(NC4CCOCC4)c23)cc1 [Example 400, 5-(2-hydroxypropan-2-yl)-N-[(1R)-1-(4-{3-[(oxan-4-yl)amino]-1H-pyrazolo[3,4-b]pyridin-4-yl}phenyl)ethyl]-1,2-oxazole-3-carboxamide] |  | 5.2 |  | 
